Measurements as given in PMC5563081, “Modulating Protein-Protein Interactions of the Mitotic Polo-like Kinases to Target Mutant KRAS” (Cell Chemical Biology, 2017).
Converted amounts (≈) assume the structure as drawn. Like-named read-outs stand apart in the source and are kept apart here.

Tests used:
[1] = Solubility in 5% DMSO; assay type: physicochemical; conditions: aqueous with cosolvent or surfactant or cyclodextrin, read-out: soluble at up to
[2] = test system: murine pancreatic organoids KRAS WT p53 MUT; assay: Viability of pancreatic organoids (CellTitre Glo 3D), KRAS WT; assay type: cell-based; conditions: Mus musculus, read-out: Mean GI50
Experimental: (§1) Organoid cultures were prepared from the pancreas of LSL-Trp53^R172H/+, Pdx-1-Cre (for Kras WT organoids) or LSL-Trp53^R172H/+, LSL-Kras^G12D/+, Pdx-1-Cre (for Kras^G12D organoids KPC3760 and KPC26684) strains ([Hingorani et al., 2005]). Pancreatic ducts were manually picked after tissue mincing and overnight enzymatic digestion with 0.012% (w/v) collagenase XI (Sigma) and 0.012% (w/v) dispase (GIBCO) in DMEM media containing 1% FBS (GIBCO), before seeding in growth-factor-reduced (GFR) Matrigel (BD) ([Boj et al., 2015]).
(§2) Pancreatic organoids were extracted and cultured as detailed above ([Boj et al., 2015]). In brief, pancreatic organoids were seeded at 600 cells per well in a 96 well plate and allowed to grow for 7 days with media replenishment on the 3rd day. Full-grown organoids were then treated with compounds for 72h and viability determined using CellTitre Glo 3D assay (Promega). For viability assays with c-MET siRNA, cells were reverse transfected in a 6 cm dish using Dharmafect 1 (GE Dharmacon) per manufacturer’s instructions. On the following day, cells were trypsinised and plated onto 96 well plates or 6 well plates. The 96 well plates were treated with a dose range of compounds or DMSO, and viability was determined via SRB colorimetric assay. Cells in the 6 well plates were collected at the end of experiment to corroborate knockdown of c-MET by Western blotting.

[3] = biological target: T1, SgK110 (Homo sapiens, UniProt P0C264); assay: DiscoverX KINOMEscan; assay type: binding; conditions: read-out: % Control
T1 construct: purchased DiscoverX KINOMEscan
Experimental: (§3) A panel of 55 proteins (comprising 51 human kinases structurally or functionally related to the PLKs, plus the kinase catalytic domains of PLK1, PLK2, PLK3 and PLK4) were selected for testing by DiscoverX using the KINOMEscan assay platform. Compounds were supplied as 40x DMSO stocks and were tested at a final concentration of 50μM for Poloppin and 5μM for Poloppin-II. Binding interactions were reported as percentage of control where lower numbers indicate stronger binding. A cut-off of <35% was applied to report significant binding.

[4] = biological target: T2, CSNK2A2 (Homo sapiens, UniProt P19784); assay: DiscoverX KINOMEscan; assay type: binding; conditions: read-out: % Control
T2 construct: purchased DiscoverX KINOMEscan
Experimental: as §3

[5] = biological target: T3, SBK1 (Homo sapiens, UniProt Q52WX2); assay: DiscoverX KINOMEscan; assay type: binding; conditions: read-out: % Control
T3 construct: purchased DiscoverX KINOMEscan
Experimental: as §3

[6] = biological target: T4, STK16 (Homo sapiens, UniProt O75716); assay: DiscoverX KINOMEscan; assay type: binding; conditions: read-out: % Control
T4 construct: purchased DiscoverX KINOMEscan
Experimental: as §3

[7] = biological target: T5, ULK3 (Homo sapiens, UniProt Q6PHR2); assay: DiscoverX KINOMEscan; assay type: binding; conditions: read-out: % Control
T5 construct: purchased DiscoverX KINOMEscan
Experimental: as §3

[8] = biological target: T6, EIF2AK4 (Homo sapiens, UniProt Q9P2K8, S808G); assay: DiscoverX KINOMEscan; assay type: binding; conditions: read-out: % Control
T6 construct: purchased DiscoverX KINOMEscan
Experimental: as §3

[9] = biological target: T7, TTK (Homo sapiens, UniProt P33981); assay: DiscoverX KINOMEscan; assay type: binding; conditions: read-out: % Control
T7 construct: purchased DiscoverX KINOMEscan
Experimental: as §3

[10] = biological target: T8, GSG2 (Homo sapiens, UniProt Q8TF76); assay: DiscoverX KINOMEscan; assay type: binding; conditions: read-out: % Control
T8 construct: purchased DiscoverX KINOMEscan
Experimental: as §3

[11] = biological target: T9, EIF2AK1 (Homo sapiens, UniProt Q9BQI3); assay: DiscoverX KINOMEscan; assay type: binding; conditions: read-out: % Control
T9 construct: purchased DiscoverX KINOMEscan
Experimental: as §3

[12] = biological target: T10, PLK3 kinase catalytic domain (Homo sapiens, UniProt Q9H4B4); assay: DiscoverX KINOMEscan; assay type: binding; conditions: read-out: % Control
T10 construct: PLK3 kinase catalytic domain; purchased DiscoverX KINOMEscan
Experimental: as §3

[13] = biological target: T11, AURKB (Homo sapiens, UniProt Q96GD4); assay: DiscoverX KINOMEscan; assay type: binding; conditions: read-out: % Control
T11 construct: purchased DiscoverX KINOMEscan
Experimental: as §3

[14] = biological target: T12, CHUK (Homo sapiens, UniProt O15111); assay: DiscoverX KINOMEscan; assay type: binding; conditions: read-out: % Control
T12 construct: purchased DiscoverX KINOMEscan
Experimental: as §3

[15] = biological target: T13, CDK2 (Homo sapiens, UniProt P24941); assay: DiscoverX KINOMEscan; assay type: binding; conditions: read-out: % Control
T13 construct: purchased DiscoverX KINOMEscan
Experimental: as §3

[16] = biological target: T14, NEK4 (Homo sapiens, UniProt P51957); assay: DiscoverX KINOMEscan; assay type: binding; conditions: read-out: % Control
T14 construct: purchased DiscoverX KINOMEscan
Experimental: as §3

[17] = test system: SW48 KRAS G12D cells; assay: Cell viability (SRB), SW48 KRAS G12D; assay type: cell-based; conditions: Homo sapiens
Experimental: SW48 Parental, SW48 G12D, Panc-1, HPAF-II, Panc 02.03 and Panc 05.04 cell lines were seeded overnight at 5000 cells per well in a 96 well plate in recommended media (ATCC). Compounds were added the following day and viability was measured at 72h using the sulforhodamine B (SRB) colorimetric assay as follows. Cells were fixed by replacing media with 1% v/v Trichloroacetic Acid (TCA) (Sigma-Aldrich) at 4°C and incubated for 1h also at 4°C. Wells were washed thoroughly with copious amounts of deionised water before staining with Sulforhodamine B (SRB) (Sigma-Aldrich) solution (0.057% w/v in 1% v/v Acetic Acid (VWR)) for 30 min. Stain was aspirated and wells washed with several changes of 1% v/v Acetic Acid until unbound stain was removed, before air-drying. Bound stain was solubilized with 100μl / well 10mM Tris (pH 8.0) (Trizma Base (121.1) Sigma-Aldrich) with agitation for 10 min. Fluorescence intensity was recorded at Ex540nm / Em590nm using a BMG Pherastar Plus plate reader ([Vichai and Kirtikara, 2006]).

[18] = test system: HeLa cells; assay: Mitotic index assay in HeLa cells; assay type: cell-based, human; conditions: for EC50: Homo sapiens
Experimental: Cells were plated at 10 000/well in 96-well plates and incubated overnight. The following day compound stocks in DMSO were diluted in medium then added to cells with a maximum final DMSO concentration on cells of 0.2%. […] Cells were permeabilised with 0.1% Triton X-100 then incubated with anti-phospho-histone H3 (Ser10) antibody (Abcam ab5176). The cells were washed with PBS then incubated with AlexaFluor 488 labelled goat anti-rabbit IgG (Invitrogen A11034) in the presence of 4ug/ml Hoechst 33342 (Invitrogen H3570). Cells were washed in PBS then imaged on an Arrayscan VTi HCS instrument (Thermo Fisher) using the Target Activation V4 Bioapplication. A user-defined threshold was applied to identify mitotic cells based on the intensity of phospho-histone H3 staining.

[19] = test system: murine pancreatic organoids KRAS MUT p53 MUT; assay: Viability of pancreatic organoids (CellTitre Glo 3D), KRAS G12D; assay type: cell-based; conditions: Mus musculus
Experimental: as §1, §2

[20] = test system: kinase catalytic domains of PLK1, PLK2, PLK3, PLK4 and 51 other protein kinases; assay: DiscoverX KINOMEscan panel of 55 kinases (statements in words); assay type: binding, human; conditions: cut-off <35% of control
Experimental: as §3

[21] = HeLa, Figure 5A, read-out: MI EC50 (cellular assay for mitotic arrest)

T9 sequence (Q9BQI3 whole entry): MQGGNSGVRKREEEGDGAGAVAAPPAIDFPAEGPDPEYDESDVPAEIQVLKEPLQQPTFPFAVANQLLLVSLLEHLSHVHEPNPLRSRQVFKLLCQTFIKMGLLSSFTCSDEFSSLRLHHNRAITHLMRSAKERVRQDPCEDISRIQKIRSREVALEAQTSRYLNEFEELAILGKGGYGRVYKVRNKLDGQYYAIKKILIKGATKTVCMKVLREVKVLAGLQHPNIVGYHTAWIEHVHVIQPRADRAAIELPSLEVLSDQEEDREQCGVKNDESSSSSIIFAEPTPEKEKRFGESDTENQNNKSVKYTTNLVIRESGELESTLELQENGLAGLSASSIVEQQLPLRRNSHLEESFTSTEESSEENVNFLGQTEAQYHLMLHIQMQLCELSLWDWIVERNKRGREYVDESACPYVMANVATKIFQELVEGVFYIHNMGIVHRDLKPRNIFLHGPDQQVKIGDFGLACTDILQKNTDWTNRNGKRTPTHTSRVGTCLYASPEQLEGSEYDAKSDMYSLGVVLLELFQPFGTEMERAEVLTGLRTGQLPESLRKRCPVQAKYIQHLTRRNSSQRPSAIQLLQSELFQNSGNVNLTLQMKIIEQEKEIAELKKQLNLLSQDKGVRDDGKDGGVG
T8 sequence (Q8TF76 whole entry): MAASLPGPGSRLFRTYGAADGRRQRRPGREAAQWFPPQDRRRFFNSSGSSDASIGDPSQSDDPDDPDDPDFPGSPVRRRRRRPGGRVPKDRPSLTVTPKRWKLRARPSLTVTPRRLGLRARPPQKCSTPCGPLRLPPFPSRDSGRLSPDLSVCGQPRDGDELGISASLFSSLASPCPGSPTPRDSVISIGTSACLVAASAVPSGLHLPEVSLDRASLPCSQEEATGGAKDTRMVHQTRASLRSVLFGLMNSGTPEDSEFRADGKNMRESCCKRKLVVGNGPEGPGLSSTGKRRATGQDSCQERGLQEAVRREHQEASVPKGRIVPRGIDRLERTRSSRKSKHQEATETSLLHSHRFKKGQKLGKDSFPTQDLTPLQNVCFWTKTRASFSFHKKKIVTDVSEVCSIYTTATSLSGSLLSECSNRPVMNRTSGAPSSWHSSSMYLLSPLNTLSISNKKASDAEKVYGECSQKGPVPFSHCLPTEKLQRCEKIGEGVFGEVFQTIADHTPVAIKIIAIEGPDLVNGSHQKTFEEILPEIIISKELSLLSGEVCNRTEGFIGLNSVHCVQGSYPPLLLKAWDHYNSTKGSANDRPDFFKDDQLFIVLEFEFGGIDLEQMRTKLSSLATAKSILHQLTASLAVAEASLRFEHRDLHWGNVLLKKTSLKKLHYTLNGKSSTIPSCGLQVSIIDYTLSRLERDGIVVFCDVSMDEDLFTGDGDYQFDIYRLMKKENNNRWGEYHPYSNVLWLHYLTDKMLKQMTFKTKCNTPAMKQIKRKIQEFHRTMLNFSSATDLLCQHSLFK
T2 sequence (P19784 whole entry): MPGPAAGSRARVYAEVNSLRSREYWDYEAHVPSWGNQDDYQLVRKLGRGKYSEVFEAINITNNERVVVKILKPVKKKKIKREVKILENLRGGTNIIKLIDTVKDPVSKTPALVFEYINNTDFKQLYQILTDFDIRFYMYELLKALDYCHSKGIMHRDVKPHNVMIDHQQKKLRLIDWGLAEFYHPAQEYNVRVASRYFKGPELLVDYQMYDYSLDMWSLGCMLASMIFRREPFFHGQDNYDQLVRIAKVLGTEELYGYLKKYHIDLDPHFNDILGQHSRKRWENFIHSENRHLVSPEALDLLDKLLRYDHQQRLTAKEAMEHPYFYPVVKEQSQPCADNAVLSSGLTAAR
T12 sequence (O15111 whole entry): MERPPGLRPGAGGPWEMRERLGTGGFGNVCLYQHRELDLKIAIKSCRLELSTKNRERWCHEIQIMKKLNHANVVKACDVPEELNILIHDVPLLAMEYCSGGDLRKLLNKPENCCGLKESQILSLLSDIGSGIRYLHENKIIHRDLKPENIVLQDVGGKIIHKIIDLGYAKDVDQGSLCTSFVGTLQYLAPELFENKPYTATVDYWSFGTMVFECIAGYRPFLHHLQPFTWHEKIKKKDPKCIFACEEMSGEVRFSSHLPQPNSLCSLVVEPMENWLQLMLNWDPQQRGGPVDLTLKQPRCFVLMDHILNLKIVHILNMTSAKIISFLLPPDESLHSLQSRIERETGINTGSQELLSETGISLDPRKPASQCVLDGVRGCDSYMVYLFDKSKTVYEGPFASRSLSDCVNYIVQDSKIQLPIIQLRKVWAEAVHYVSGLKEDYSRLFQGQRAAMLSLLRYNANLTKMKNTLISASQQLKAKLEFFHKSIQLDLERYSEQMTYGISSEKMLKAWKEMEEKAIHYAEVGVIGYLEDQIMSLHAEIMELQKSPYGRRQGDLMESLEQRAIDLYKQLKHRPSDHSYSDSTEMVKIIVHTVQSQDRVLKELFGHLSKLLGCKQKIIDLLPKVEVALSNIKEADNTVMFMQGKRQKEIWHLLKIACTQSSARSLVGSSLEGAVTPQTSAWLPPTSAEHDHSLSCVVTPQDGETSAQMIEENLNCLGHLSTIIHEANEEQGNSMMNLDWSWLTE
T1 sequence (P0C264 whole entry): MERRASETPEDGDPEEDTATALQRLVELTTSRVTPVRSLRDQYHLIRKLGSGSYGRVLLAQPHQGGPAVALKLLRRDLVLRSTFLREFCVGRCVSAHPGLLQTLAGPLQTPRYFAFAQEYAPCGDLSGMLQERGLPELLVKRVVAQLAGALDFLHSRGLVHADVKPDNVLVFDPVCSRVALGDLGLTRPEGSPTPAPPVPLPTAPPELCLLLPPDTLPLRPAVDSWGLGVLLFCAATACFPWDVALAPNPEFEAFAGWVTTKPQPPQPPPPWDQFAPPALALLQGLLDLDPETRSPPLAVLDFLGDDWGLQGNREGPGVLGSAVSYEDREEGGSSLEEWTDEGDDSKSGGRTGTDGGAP
T7 sequence (P33981 whole entry): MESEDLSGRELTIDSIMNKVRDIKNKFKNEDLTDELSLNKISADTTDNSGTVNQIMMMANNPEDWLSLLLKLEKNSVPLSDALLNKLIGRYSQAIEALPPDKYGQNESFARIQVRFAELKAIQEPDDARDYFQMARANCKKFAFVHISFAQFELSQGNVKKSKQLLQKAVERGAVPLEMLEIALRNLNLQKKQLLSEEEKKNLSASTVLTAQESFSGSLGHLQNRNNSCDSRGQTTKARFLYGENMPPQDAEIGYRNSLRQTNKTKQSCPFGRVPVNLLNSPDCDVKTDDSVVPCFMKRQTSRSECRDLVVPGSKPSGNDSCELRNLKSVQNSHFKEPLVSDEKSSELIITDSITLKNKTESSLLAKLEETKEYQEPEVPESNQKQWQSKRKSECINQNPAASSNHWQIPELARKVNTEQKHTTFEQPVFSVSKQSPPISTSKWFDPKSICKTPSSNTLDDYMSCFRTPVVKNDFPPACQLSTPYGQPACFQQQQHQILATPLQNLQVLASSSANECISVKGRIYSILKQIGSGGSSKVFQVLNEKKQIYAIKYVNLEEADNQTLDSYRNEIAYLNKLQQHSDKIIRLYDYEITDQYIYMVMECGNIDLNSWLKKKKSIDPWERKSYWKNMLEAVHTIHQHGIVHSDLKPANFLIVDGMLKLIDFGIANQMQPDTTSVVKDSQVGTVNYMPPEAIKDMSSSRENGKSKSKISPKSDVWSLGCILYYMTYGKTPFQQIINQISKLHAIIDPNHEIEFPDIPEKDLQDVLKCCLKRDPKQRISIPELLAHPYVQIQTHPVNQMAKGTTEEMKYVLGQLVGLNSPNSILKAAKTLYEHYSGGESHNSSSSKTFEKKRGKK
T3 sequence (Q52WX2 whole entry): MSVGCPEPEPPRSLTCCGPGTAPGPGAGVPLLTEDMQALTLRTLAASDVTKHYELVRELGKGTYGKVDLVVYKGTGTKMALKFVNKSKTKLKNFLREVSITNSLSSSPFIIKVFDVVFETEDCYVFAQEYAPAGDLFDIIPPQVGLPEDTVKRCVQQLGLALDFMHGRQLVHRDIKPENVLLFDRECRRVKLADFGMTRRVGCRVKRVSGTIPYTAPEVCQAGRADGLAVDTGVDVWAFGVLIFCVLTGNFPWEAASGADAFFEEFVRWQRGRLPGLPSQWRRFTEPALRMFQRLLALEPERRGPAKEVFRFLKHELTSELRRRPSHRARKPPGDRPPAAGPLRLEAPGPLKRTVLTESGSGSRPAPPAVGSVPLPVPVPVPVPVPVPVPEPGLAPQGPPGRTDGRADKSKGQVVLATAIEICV
T14 sequence (P51957 whole entry): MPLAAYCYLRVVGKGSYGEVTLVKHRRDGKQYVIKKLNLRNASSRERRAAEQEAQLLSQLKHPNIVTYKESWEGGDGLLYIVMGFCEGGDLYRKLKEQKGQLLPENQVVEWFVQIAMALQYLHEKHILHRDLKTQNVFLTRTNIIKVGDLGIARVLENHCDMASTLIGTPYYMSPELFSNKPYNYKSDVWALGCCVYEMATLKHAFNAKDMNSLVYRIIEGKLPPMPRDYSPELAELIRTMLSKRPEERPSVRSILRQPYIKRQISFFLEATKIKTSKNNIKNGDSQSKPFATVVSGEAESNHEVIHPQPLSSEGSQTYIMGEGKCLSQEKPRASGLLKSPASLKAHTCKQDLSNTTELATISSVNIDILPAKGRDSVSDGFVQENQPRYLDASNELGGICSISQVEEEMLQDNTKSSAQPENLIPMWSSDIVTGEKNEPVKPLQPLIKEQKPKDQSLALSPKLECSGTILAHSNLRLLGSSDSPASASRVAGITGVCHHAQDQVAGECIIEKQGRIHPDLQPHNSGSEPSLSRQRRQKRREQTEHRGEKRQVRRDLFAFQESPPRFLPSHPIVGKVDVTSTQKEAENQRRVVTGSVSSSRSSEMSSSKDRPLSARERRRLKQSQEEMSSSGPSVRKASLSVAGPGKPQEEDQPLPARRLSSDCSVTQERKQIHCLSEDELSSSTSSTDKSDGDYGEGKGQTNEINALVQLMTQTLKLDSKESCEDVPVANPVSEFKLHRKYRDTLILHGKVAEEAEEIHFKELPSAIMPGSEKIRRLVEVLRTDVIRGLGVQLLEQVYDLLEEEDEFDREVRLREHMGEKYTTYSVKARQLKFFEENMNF

Compound: CN(C)CCNC(=O)c1ccc(-c2ccc(-c3ccc(Cl)cc3)n2-c2ccccc2C(F)(F)F)cc1 [Poloppin-II]
- solubility [1]: ~100 µM (≈ 51.2 µg/mL)
- GI50 ([2]; organoids KRAS WT p53 MUT, n=2): 102 µM
- remaining binding at 5 µM ([3]; SgK110, Poloppin-II 5µM, hit <35%): 100%
- remaining binding at 5 µM ([4]; CSNK2A2, Poloppin-II 5µM, hit <35%): 92%
- remaining binding at 5 µM ([5]; SBK1, Poloppin-II 5µM, hit <35%): 61%
- remaining binding at 5 µM ([6]; STK16, Poloppin-II 5µM, hit <35%): 92%
- remaining binding at 5 µM ([7]; ULK3, Poloppin-II 5µM, hit <35%): 88%
- remaining binding at 5 µM ([8]; EIF2AK4, Poloppin-II 5µM, hit <35%): 97%
- remaining binding at 5 µM ([9]; TTK, Poloppin-II 5µM, hit <35%): 83%
- remaining binding at 5 µM ([10]; GSG2, Poloppin-II 5µM, hit <35%): 77%
- remaining binding at 5 µM ([11]; EIF2AK1, Poloppin-II 5µM, hit <35%): 98%
- remaining binding at 5 µM ([12]; PLK3, Poloppin-II 5µM, hit <35%): 74%
- remaining binding at 5 µM ([13]; AURKB, Poloppin-II 5µM, hit <35%): 95%
- remaining binding at 5 µM ([14]; CHUK, Poloppin-II 5µM, hit <35%): 100%
- remaining binding at 5 µM ([15]; CDK2, Poloppin-II 5µM, hit <35%): 89%
- remaining binding at 5 µM ([16]; NEK4, Poloppin-II 5µM, hit <35%): 100%
- GI50 ([17]; SW48 G12D, 72 hr, Figure 5D, read-out: GI50): 0.0115 ± 0.00109 µM
- EC50 [18, 21]: 0.069 µM
- EC50 ([18]; HeLa cells, Figure 5B, read-out: half maximal effective concentration, cellular assay for mitotic arrest): 0.061 µM
- GI50 ([19]; organoids KRAS MUT p53 MUT #2, n=2, read-out: Mean GI50): 22.9 µM
- binding to the kinase catalytic domains of PLK1–4, or to 51 other related kinases ([20]; Poloppin-II at 5 μM): no binding

Compound: O=C(O)CCc1ccc(-c2ccc(Br)cc2)n1-c1ccccc1C(F)(F)F [Poloppin]
- solubility [1]: ≤ 1000 µM
- GI50 [2]: 119 µM
- remaining binding at 50 µM [3]: 94%
- remaining binding at 50 µM [4]: 84%
- remaining binding at 50 µM [5]: 61%
- remaining binding at 50 µM [6]: 81%
- remaining binding at 50 µM [7]: 94%
- remaining binding at 50 µM [8]: 100%
- remaining binding at 50 µM [9]: 85%
- remaining binding at 50 µM [10]: 100%
- remaining binding at 50 µM [11]: 97%
- remaining binding at 50 µM [12]: 83%
- remaining binding at 50 µM [13]: 87%
- remaining binding at 50 µM [14]: 100%
- remaining binding at 50 µM [15]: 84%
- remaining binding at 50 µM [16]: 100%
- GI50 ([17]; SW48): 5.3 ± 1.03 µM
- EC50, mitotic index assay ([18]; HeLa cells treated for 16 hr, Figure 5B): 14.6 µM
- EC50 [18, 21]: 14.1 µM
- GI50 ([19]; read-out: Mean GI50, organoids KRAS MUT p53 MUT #1, n=2): 22.9 µM
- GI50 ([19]; read-out: Mean GI50, organoids KRAS MUT p53 MUT #2, n=2): 28.4 µM
- binding to 51 other protein kinases ([20]; Poloppin at 50μM): No significant binding
- binding to the kinase catalytic domains of PLK1, PLK2, PLK3, PLK4 ([20]; Poloppin at 50μM): does not bind
